# Experimental data reported in patent publication US9840482B2, “Sulfonamide derivatives and pharmaceutical applications thereof” (Sunshine Lake Pharma Co., Ltd., priority 2014, dated 2017).
# Molecular target: T1, human 5-HT6 receptor (Homo sapiens, UniProt P50406)
# T1 construct: expressed in transfected cells; host or cells: CHO cells (membrane preparation)
# Assay: Radioligand binding assay ([3H]LSD) on membranes of CHO cells expressing human 5-HT6 receptor
# Details: human 5-HT6 receptor expressed in CHO cell, 2 nM [3H]LSD, 37° C., 120 min
# Method: The binding affinities of the compounds of this invention to human 5-HT6 receptor expressed in CHO cell were evaluated by radioligand binding assay in this example. Briefly, for each compound of the present invention, the binding affinity thereof was tested through the following steps:
# 32 μg membrane proteins of CHO cell expressing human 5-HT6 receptor, 2 nM of radioactive marker [3H]LSD, a compound of the present invention having different test concentrations, 100 μM 5-HT (5-HT was used to eliminate nonspecific binding sites) and a buffer solution were mixed uniformly. Then the resulting mixture was incubated at 37° C. for 120 min, in which the buffer solution was comprised of 50 mM Tris-HC1 (pH 7.4), 10 mM MgCl2, 0.5 mM EDTA, 10 μM pargyline and 20 mg/L protease inhibitor.
# After incubation, the resluting mixture was filtered by a fiberglass filter in vacuo (GF/B, Packard), and the filter membrane of the fiberglass filter was preimpregnated with 0.3% PEI before the filtering and washed with 50 mM of Tris-HC1 for several times after the filtering. After the filter membrane was dried, and the radioactivity of filter membrane was determined by liquid scintillation counting by using a scintillometer (Topcount, Packard). The reference standard was 5-HT, and IC50 values were calculated by competitive inhibition curves plotted based on several inhibition ratios and the corresponding compound concentrations.
# T1 sequence (P50406 whole entry): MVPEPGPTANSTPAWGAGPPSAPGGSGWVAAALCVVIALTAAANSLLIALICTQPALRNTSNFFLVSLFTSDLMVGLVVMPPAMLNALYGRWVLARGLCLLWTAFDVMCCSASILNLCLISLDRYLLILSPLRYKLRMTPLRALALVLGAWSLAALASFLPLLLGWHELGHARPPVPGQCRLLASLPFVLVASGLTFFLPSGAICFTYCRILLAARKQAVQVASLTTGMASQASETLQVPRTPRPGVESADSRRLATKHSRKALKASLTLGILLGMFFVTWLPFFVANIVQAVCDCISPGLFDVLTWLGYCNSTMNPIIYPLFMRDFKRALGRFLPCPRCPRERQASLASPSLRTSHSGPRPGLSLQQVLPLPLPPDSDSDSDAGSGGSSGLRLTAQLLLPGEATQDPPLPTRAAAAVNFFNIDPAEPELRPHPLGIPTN
row,Structure (SMILES),IC50 [nM]
1,"COc1ccc(S(=O)(=O)NCCc2ccc(OC)c3ccccc23)cc1N1CCNCC1 [Example 33, 4-Methoxy-N-(2-(4-methoxynaphthalen-1-yl)ethyl)-3-(piperazin-1-yl) benzenesulfonamide]",5.5
2,COc1ccc(S(=O)(=O)NCCc2cccc3ccc(F)cc23)cc1N1CCNCC1 [Example 9],0.69
3,"COc1ccc(S(=O)(=O)NCC(C)(C)c2cccc3cc(F)ccc23)cc1N1CCNCC1 [Example 15, N-(2-(6-fluoronaphthalen-1-yl)-2-methylpropyl)-4-methoxy-3-(piperazin-1-yl)benzene sulfonamide]",11
4,COc1ccc(S(=O)(=O)NCCc2cccc3cc(F)ccc23)cc1N1CCN(C)CC1 [Example 6],1.3
5,"COc1ccc(S(=O)(=O)NCCc2cccc3ccc(Br)cc23)cc1N1CCNCC1 [Example 11, N-(2-(7-Bromonaphthalen-1-yl)ethyl)-4-methoxy-3-(piperazin-1-yl) benzenesulfonamide]",2.1
6,"COc1ccc(S(=O)(=O)NCC(C)(C)c2cccc3ccc(Br)cc23)cc1N1CCNCC1 [Example 21, N-(2-(7-Bromonaphthalen-1-yl)-2-methylpropyl)-4-methoxy-3-(piperazin-1-yl) benzenesulfonamide]",1.7
7,"COc1ccc2cccc(C(C)(C)CNS(=O)(=O)c3ccc(OC)c(N4CCN(C)CC4)c3)c2c1 [Example 18, 4-Methoxy-N-(2-(7-methoxynaphthalen-1-yl)-2-methylpropyl)-3-(4-methylpiperazin-1-yl) benzenesulfonamide]",1.4
8,"COc1ccc2cccc(C(C)(C)CNS(=O)(=O)c3ccc(OC)c(N4CCNCC4)c3)c2c1 [Example 17, 4-Methoxy-N-(2-(7-methoxynaphthalen-1-yl)-2-methylpropyl)-3-(piperazin-1-yl)benzene sulfonamide]",1.1
9,COc1ccc(S(=O)(=O)NCCc2ccc(F)c3ccccc23)cc1N1CCN(C)CC1 [Example 36],0.46
10,COc1ccc(S(=O)(=O)NCCc2ccc(OC)c3ccccc23)cc1N1CCN(C)CC1 [Example 34],2.6
11,COc1ccc(S(=O)(=O)NCC2(c3cccc4ccc(Br)cc34)CC2)cc1N1CCNCC1 [Example 31],1.2
12,"COc1ccc(S(=O)(=O)NCC(C)(C)c2cccc3ccccc23)cc1N1CCNCC1 [Example 13, 4-Methoxy-N-(2-methyl-2-(naphthalen-1-yl)propyl)-3-(piperazin-1-yl) benzenesulfonamide]",1.3
13,"COc1ccc(S(=O)(=O)NCCc2cccc3ccc(Br)cc23)cc1N1CCN(C)CC1 [Example 12, N-(2-(7-Bromonaphthalen-1-yl)ethyl)-4-methoxy-3-(4-methylpiperazin-1-yl) benzene sulfonamide]",0.17

# The remaining compounds from weak to strong by IC50, led by results:
row,IC50 [nM],Structure (SMILES)
1,31,"COc1ccc(S(=O)(=O)NCCc2cccc3c(OC)cccc23)cc1N1CCNCC1 [Example 3, 4-Methoxy-N-(2-(5-methoxynaphthalen-1-yl)ethyl)-3-(piperazin-1-yl) benzenesulfonamide]"
2,16,"COc1ccc(S(=O)(=O)NCC2(c3cccc4cc(F)ccc34)CC2)cc1N1CCNCC1 [Example 25, N-((1-(6-fFluoronaphthalen-1-yl)cyclopropyl)methyl)-4-methoxy-3-(piperazin-1-yl) benzenesulfonamide]"
3,11,"COc1ccc(S(=O)(=O)NCCc2cccc3c(OC)cccc23)cc1N1CCN(C)CC1 [Example 4, 4-Methoxy-N-(2-(5-methoxynaphthalen-1-yl)ethyl)-3-(4-methylpiperazin-1-yl) benzenesulfonamide]"
4,5,"COc1ccc2cccc(C3(CNS(=O)(=O)c4ccc(OC)c(N5CCNCC5)c4)CC3)c2c1 [Example 27, 4-Methoxy-N-((1-(7-methoxynaphthalen-1-v1)cyclopropyl)methyl)-3-(piperazin-1-yl) benzenesulfonamide]"
5,4.1,COc1ccc(S(=O)(=O)NCCc2cccc3cc(F)ccc23)cc1N1CCNCC1 [Example 5]
6,3.7,"COc1ccc(S(=O)(=O)NCC2(c3cccc4ccccc34)CC2)cc1N1CCNCC1 [Example 23, 4-Methoxy-N-((1-(naphthalen-1-yl)cyclopropyl)methyl)-3-(piperazin-1-yl) benzenesulfonamide]"
7,3.2,"COc1ccc(S(=O)(=O)NCC2(c3cccc4cc(F)ccc34)CC2)cc1N1CCN(C)CC1 [Example 26, N-((1-(6-Fluoronaphthalen-1-yl)cyclopropyl)methyl)-4-methoxy-3-(4-methylpiperazin-1-yl) benzenesulfonamide]"
8,2.7,COc1ccc(S(=O)(=O)NCCc2cccc3ccccc23)cc1N1CCNCC1 [Example 1]
9,2.3,COc1ccc(S(=O)(=O)NCC2(c3cccc4ccc(F)cc34)CC2)cc1N1CCNCC1 [Example 29]
10,2.1,"COc1ccc2cccc(C3(CNS(=O)(=O)c4ccc(OC)c(N5CCN(C)CC5)c4)CC3)c2c1 [Example 28, 4-Methoxy-N-((1-(7-methoxynaphthalen-1-yl)cyclopropyl)methyl)-3-(4-methylpiperazin-1-yl) benzenesulfonamide]"
11,2,"COc1ccc(S(=O)(=O)NCC2(c3cccc4ccccc34)CC2)cc1N1CCN(C)CC1 [Example 24, 4-Methoxy-3-(4-methylpiperazin-1-yl)-N-((1-(naphthalen-1-yl)cyclopropyl)methyl) benzenesulfonamide]"
12,1.6,COc1ccc(S(=O)(=O)NCCc2ccc(F)c3ccccc23)cc1N1CCNCC1 [Example 35]
13,1,"COc1ccc2cccc(CCNS(=O)(=O)c3ccc(OC)c(N4CCNCC4)c3)c2c1 [Example 7, 4-Methoxy-N-(2-(7-methoxynaphthalen-1-yl)ethyl)-3-(piperazin-1-yl) benzenesulfonamide]"
14,0.92,COc1ccc(S(=O)(=O)NCCc2cccc3ccccc23)cc1N1CCN(C)CC1 [Example 2]
15,0.5,COc1ccc2cccc(CCNS(=O)(=O)c3ccc(OC)c(N4CCN(C)CC4)c3)c2c1 [Example 8]
16,0.31,"COc1ccc(S(=O)(=O)NCC(C)(C)c2cccc3ccc(Br)cc23)cc1N1CCN(C)CC1 [Example 22, N-(2-(7-Bromonaphthalen-1-yl)-2-methylpropyl)-4-methoxy-3-(4-methylpiperazin-1-yl) benzenesulfonamide]"
17,0.28,COc1ccc(S(=O)(=O)NCCc2cccc3ccc(F)cc23)cc1N1CCN(C)CC1 [Example 10]

# Test system: not listed separately
# Assay: Pharmacokinetic evaluation after intravenous or gavage administration to dogs
# Assay type: in vivo, Beagle dogs
# Details: by gavage, 5 mg/kg
# Method: The LC/MS/MS system for the analysis comprised an Agilent 1200 Series Vacuum Degasser, binary syringe pumps, a well-plate autosampler, a column oven and an Agilent G6430A Triple Quadrupole Mass Spectrometer equiped with an electrospray ionization (ESI) source, Quantitative analysis was performed in the MRM mode and the conversion parameters of MRM were listed in Table 3:
# Analysis was performed on waters)(Bridge C18 (2.1×50 mm, […] column, and 5 μL of sample was injected). Conditions of the analysis comprised: a mobile phase consisted of mobile phase A (water, 2 mM ammonium formate and 0.1% formic acid) and mobile phase B (methanol, 2 mM ammonium formate and 0.1% formic acid), the flow rate was 0.4 mL/min, and the conditions of gradient elution were listed in Table 4: […]
# In vivo pharmacokinetic assays in dogs of the compounds disclosed herein were performed by the following steps.
# Experiments were divided into two groups, one group was performed through intravenous drug delivery, and the other group was performed by gavage. The compounds disclosed herein were administered in form of a saline solution containing 5% DMSO, 5% Kolliphor HS 15, 2% (2% HC1) and 88% Saline, or the solution containing 10% DMSO, 10% Kolliphor HS 15 and 80% physiological saline. […]
row,Structure (SMILES),area under the plasma concentration vs time curve (AUClast)
1,"COc1ccc(S(=O)(=O)NCC(C)(C)c2cccc3ccccc23)cc1N1CCNCC1 [Example 13, 4-Methoxy-N-(2-methyl-2-(naphthalen-1-yl)propyl)-3-(piperazin-1-yl) benzenesulfonamide]",more than 15000 h*ng/mL
